Source: patent US20140045908A1, “HSP90 INHIBITORY COMPOUNDS IN TREATING JAK/STAT SIGNALING-MEDIATED CANCERS” (SYNTA PHARMACEUTICALS CORP., priority 2011, published 2014)

Test system: SET-2, HEL92.1.7, MV4-11, NCI-H1975 and DU145 cells
Test: Cell viability assay (AlamarBlue, 72 h), group of JAK/STAT-dependent tumor cell lines
Type: cell-based, human
Description: SET-2, HEL92.1.7, MV4-11, NCI-H1975 and DU145 cells were treated with ganetespib or 17-AAG over a broad dose range (0.0001 to 1 μM) for 72 h and cell viability assessed by Alamar blue staining.
All cell lines were obtained from the ATCC (Rockville, Md., USA), with the exception of SET-2 cells which were purchased from the German Collection of Microorganisms and Cell Cultures (DSMZ, Germany). Cells were maintained and cultured according to standard techniques at 37° C. in 5% (v/v) CO2 using culture medium recommended by the supplier.
Cells were grown in 96-well plates based on optimal growth rates determined empirically for each line. Twenty-four hours after plating, cells were dosed with the indicated compound or DMSO (0.3%) for 72 h. AlamarBlue (Invitrogen, Carlsbad, Calif., USA) was added (10% v/v) to the cells, and the plates were incubated for 3 h and subjected to fluorescence detection (Ex=545 nm, Em=600 nm) in a SpectraMax Plus 384 microplate reader (Molecular Devices, Sunnyvale, Calif., USA). Data are normalized to percent of control, with IC50 values based on a four-parameter logistic dose response curve (model 205) using XLfit version 5.1 from IDBS (Guildford, U.K.).

## CC(C)c1cc(-c2nnc(O)n2-c2ccc3c(ccn3C)c2)c(O)cc1O [ganetespib, 3-(2,4-dihydroxy-5-isopropyl-phenyl)-4-(1-methyl-indol-5-yl)-5-hydroxy-[1,2,4] triazole]
Each of the lines tested
  potency compared with 17-AAG, cell viability: more potent than the ansamycin Hsp90 inhibitor 17-AAG
Group of human hematological and solid tumor cell lines, 72 h
  potency in reducing cellular viability: low nanomolar potency
